Patent US20250340591A1, “COMPOSITION FOR PREVENTING OR TREATING INFLAMMATORY BOWEL DISEASE CONTAINING NOVEL COMPOUND” (ANYGEN CO., LTD., priority 2021, published 2025)

What was measured:
[1] = biological target: T1, neurotensin receptor (NTSR2) (Homo sapiens, UniProt O95665); experiment: luciferase assay system, ghrelin receptor family selectivity; assay type: cell-based; conditions: compared with intrinsic ligand, FIG. 74
T1 construct: expressed in transfected cells
Description: (§1) In addition, through the activity test of the HKFY derivatives for similar receptors to GPR39, ghrelin receptor family (ghrelin receptor (GHSR), motilin receptor (MTLR), neurotensin receptor (NTSR1 & NTSR2), neuromedin U receptor (NMU1 & NMU2), TRH (thyrotropin releasing hormone) receptor (TRHR)), the selectivity and specificity for the GPR39 receptor were confirmed.
(§2) Specifically, the degree of activity between the intrinsic ligand and HKFY-34 for each receptor was analyzed using a luciferase assay system (FIG. 74).

[2] = biological target: T2, TRH (thyrotropin releasing hormone) receptor (TRHR) (Homo sapiens, UniProt P34981); experiment: as above; assay type: cell-based; conditions: compared with intrinsic ligand, FIG. 74
T2 construct: expressed in transfected cells
T2 sequence (P34981 1-398): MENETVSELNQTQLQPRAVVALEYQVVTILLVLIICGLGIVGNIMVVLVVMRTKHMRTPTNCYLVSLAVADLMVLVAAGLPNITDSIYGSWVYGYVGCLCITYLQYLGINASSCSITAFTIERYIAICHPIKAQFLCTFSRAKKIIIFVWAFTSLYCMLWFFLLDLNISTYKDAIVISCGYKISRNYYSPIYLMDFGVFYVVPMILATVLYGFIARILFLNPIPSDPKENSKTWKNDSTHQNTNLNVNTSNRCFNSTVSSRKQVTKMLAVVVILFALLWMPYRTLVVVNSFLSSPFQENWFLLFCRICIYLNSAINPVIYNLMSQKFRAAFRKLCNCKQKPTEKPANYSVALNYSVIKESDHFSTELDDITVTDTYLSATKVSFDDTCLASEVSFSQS
Description: as §1, §2

ghrelin receptor (GHSR) = biological target: T3, ghrelin receptor (GHSR) (Homo sapiens, UniProt Q92847); experiment: as above; assay type: cell-based; conditions: compared with intrinsic ligand, FIG. 74
T3 construct: expressed in transfected cells
Description: as §1, §2

[3] = biological target: T4, neurotensin receptor (NTSR1) (Homo sapiens, UniProt P30989); experiment: as above; assay type: cell-based; conditions: compared with intrinsic ligand, FIG. 74
T4 construct: expressed in transfected cells
Description: as §1, §2

[4] = biological target: T5, neuromedin U receptor (NMU1) (Homo sapiens, UniProt Q9HB89); experiment: as above; assay type: cell-based; conditions: compared with intrinsic ligand, FIG. 74
T5 construct: expressed in transfected cells
T5 sequence (Q9HB89 1-426): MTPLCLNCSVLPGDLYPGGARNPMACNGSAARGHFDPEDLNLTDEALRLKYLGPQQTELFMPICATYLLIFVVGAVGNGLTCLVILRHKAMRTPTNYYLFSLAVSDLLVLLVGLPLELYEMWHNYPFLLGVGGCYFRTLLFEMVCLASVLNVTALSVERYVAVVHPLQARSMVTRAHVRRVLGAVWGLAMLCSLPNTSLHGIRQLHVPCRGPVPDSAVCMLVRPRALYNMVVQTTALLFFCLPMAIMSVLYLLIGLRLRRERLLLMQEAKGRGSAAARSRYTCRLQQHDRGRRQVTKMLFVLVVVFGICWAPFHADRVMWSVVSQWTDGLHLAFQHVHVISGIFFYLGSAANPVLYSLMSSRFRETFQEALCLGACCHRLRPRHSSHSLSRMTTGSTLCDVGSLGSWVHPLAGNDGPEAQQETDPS
Description: as §1, §2

motilin receptor (MTLR) = biological target: T6, motilin receptor (MTLR) (Homo sapiens, UniProt O43193); experiment: as above; assay type: cell-based; conditions: compared with intrinsic ligand, FIG. 74
T6 construct: expressed in transfected cells
Description: as §1, §2

HT-29 cells = experiment: tight junction factor (ZO-1, occludin) expression in HT-29 cells, qPCR and Western blot; assay type: cell-based; conditions: HT-29, different concentrations, vs vehicle
Description: It is known that GPR39 is involved in the protection of the gastrointestinal tract (Phil. Trans. R. Soc. B., 2016, 371:20150420). Therefore, in order to confirm the effect of HKFY-34 on the gastrointestinal tract protective function by GPR39, the promoting activity of HKFY-34 on tight junction was evaluated using HT-29 cells, which are important for intestinal tissue formation.
Specifically, the HT-29 cells were treated with HKFY-34 at different concentrations, and then the expression levels of mRNA (FIG. 77) and protein (FIG. 78) of ZO-1 and occludin, which are important factors of tight junction in intestinal barrier function, were confirmed through quantitative RT-PCR (qPCR) and Western blot.

[5] = tested on: C57BL6/J mice with ulcerative colitis induced by DSS; experiment: DSS-induced ulcerative colitis animal model; assay type: in vivo
Description: Specifically, an animal model of ulcerative colitis among inflammatory bowel diseases was prepared by feeding C57BL6/J mice (Central Lab. Animal Inc.) with water containing 3% DSS (dextran sodium sulfate).
The untreated (vehicle) mice were set as a control group, the mice fed with only DSS (vehicle+3% DSS) were set as a negative control group, and the mice administered intraperitoneally with SASP (sulfasalazine) at 50 mg/kg after treatment with DSS (SASP 50 mg/kg+3% DSS) were set as a positive control group. As a test group, the mice were intraperitoneally administered with HKFY-34 at 0.1, 1, and 10 mg/kg, respectively. HKFY-34 was administered once a day for 5 days, and during the administration period, the stool condition and body weight loss were measured in the subjects. […]

[6] = 0.1, 1 and 10 mg/kg intraperitoneal for 5 days, ELISA, vs negative control, FIG. 88
[7] = 0.1, 1 and 10 mg/kg intraperitoneal for 5 days, qPCR, FIG. 90
[8] = 0.1, 1 and 10 mg/kg intraperitoneal for 5 days, qPCR, vs negative control, FIG. 87

T3 sequence (Q92847 whole entry, species assumed): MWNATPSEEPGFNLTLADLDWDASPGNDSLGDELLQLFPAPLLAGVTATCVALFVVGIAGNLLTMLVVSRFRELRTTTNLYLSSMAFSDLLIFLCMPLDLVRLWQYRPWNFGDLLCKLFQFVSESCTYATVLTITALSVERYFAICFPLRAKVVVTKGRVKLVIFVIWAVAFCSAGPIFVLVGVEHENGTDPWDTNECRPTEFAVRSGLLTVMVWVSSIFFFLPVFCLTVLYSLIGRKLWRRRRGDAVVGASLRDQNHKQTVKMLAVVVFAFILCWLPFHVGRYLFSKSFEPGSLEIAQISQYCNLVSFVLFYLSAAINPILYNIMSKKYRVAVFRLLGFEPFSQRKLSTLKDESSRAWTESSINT
T1 sequence (O95665 whole entry, species assumed): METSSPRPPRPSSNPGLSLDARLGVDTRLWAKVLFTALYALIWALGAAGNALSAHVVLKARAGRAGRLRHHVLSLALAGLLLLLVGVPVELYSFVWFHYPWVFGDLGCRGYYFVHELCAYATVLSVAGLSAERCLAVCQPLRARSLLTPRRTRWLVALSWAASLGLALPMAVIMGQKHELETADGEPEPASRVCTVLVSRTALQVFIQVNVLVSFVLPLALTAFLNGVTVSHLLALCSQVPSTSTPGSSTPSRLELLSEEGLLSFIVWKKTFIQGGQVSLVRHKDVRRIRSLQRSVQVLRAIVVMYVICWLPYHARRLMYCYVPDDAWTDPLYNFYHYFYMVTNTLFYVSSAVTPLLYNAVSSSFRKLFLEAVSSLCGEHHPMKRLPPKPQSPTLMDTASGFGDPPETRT
T6 sequence (O43193 whole entry, species assumed): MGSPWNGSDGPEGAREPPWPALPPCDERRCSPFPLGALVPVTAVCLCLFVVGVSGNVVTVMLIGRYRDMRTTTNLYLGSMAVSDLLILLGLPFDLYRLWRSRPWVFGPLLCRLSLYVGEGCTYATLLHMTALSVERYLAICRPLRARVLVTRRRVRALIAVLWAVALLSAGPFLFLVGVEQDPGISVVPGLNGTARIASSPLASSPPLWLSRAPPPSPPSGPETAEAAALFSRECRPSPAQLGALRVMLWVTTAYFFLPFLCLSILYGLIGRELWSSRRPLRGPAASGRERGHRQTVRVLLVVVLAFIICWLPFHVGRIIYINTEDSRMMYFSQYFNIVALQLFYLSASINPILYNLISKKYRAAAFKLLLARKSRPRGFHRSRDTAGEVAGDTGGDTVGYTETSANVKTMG
T4 sequence (P30989 whole entry, species assumed): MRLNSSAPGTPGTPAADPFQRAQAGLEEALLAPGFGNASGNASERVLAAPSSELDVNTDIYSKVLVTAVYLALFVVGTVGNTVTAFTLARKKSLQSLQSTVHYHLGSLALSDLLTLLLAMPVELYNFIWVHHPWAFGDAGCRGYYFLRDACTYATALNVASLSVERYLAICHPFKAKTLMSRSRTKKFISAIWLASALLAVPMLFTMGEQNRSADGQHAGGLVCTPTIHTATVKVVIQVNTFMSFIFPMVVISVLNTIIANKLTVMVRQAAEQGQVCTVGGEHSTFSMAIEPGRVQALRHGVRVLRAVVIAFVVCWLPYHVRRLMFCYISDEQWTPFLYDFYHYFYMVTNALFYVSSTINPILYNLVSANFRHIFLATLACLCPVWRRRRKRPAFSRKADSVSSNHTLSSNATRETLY

For `CCCCCCCC(=O)NCCCC[C@H](NC(=O)[C@@H](N)Cc1cn(C(c2ccccc2)c2ccccc2)cn1)C(=O)N[C@H](Cc1ccc(C)cc1)C(=O)N[C@@H](Cc1ccc(O)cc1)C(=O)O` [HKFY-34, ((R)-2-((S)-2-((S)-2-amino-3-(1-benzhydryl-1H-imidazol-4-yl)propanamido)-6-octanamidohexanamido)-3-(p-tolyl)propanoyl)-L-tyrosine], the “activity for NTSR2” value [1] was “very low”, the “activity for TRHR” value [2] was “very low” and the “activity for GHSR” value (ghrelin receptor (GHSR)) was “very low”. The “activity for NTSR1” value [3] was “very low”, the “activity for NMU1” value [4] was “very low” and the “activity for MTLR” value (motilin receptor (MTLR)) was “very low”. For the same compound, the “protein expression level of ZO-1” value (HT-29 cells; Western blot, FIG. 78) was “significantly increased by HKFY-34 in a dose-dependent manner”, the “protein expression level of occludin” value (HT-29 cells; Western blot, FIG. 78) was “significantly increased by HKFY-34 in a dose-dependent manner” and the “mRNA expression level of ZO-1” value (HT-29 cells; qPCR, FIG. 77) was “significantly increased by HKFY-34 in a dose-dependent manner”. The “mRNA expression level of occludin” value (HT-29 cells; qPCR, FIG. 77) was “significantly increased by HKFY-34 in a dose-dependent manner”, the “concentration of IL-1β in the blood” value [5, 6] was “significantly decreased” and the “concentration of TNF-α in the blood” value [5, 6] was “significantly decreased”. The “mRNA expression level of ZO-1 in colon tissue” value [5, 7] was “significantly increased by HKFY-34 in a dose-dependent manner”, the “mRNA expression level of occludin in colon tissue” value [5, 7] was “significantly increased by HKFY-34 in a dose-dependent manner” and the “mRNA expression level of IL-1β in colon tissue” value [5, 8] was “significantly decreased”. For the same compound, the “mRNA expression level of IL-6 in colon tissue” value [5, 8] was “significantly decreased”, the “mRNA expression level of IL-8 in colon tissue” value [5, 8] was “significantly decreased” and the “mRNA expression level of TNF-α in colon tissue” value [5, 8] was “significantly decreased”. For the same compound, the “length contraction of the colon” value ([5]; 0.1, 1 and 10 mg/kg intraperitoneal for 5 days, vs negative control (DSS alone), FIG. 84) was “reduced by HKFY-34 in a dose-dependent manner”, the “degree of damage caused by inflammation of the colon tissue (H&E staining)” value ([5]; 0.1, 1 and 10 mg/kg intraperitoneal for 5 days, vs negative control, FIG. 89) was “alleviated” and the body weight loss ([5]; 0.1, 1 and 10 mg/kg intraperitoneal once a day for 5 days, 3% DSS, FIG. 83) was “significantly inhibited by HKFY-34 in a dose-dependent manner”. The “stool consistency (diarrhea) score” value ([5]; 0.1, 1 and 10 mg/kg intraperitoneal, score 0 to 3, FIG. 85) was “alleviated in a dose-dependent manner” and the “blood in stool (fecal bleeding) score” value ([5]; 0.1, 1 and 10 mg/kg intraperitoneal, score 0 to 3, FIG. 86) was “alleviated in a dose-dependent manner”.
